As usually defined, the Tmax is the time at which the peak concentration occurs. As a reminder, the bioavailability is dose-corrected exposure relative to a reference, in per cent. A low value points to poor availability. By half-life is commonly meant the time in which the quantity being followed falls by half. A lower half-life goes with fast loss.

The nature of data set [1]: (§1) Evaluation of pharmacokinetic parameters for Ticagrelor following oral administration of Ticagrelor tablets (BRILINTA). Type of data set: ADME, organism-based. Conditions: human, in vivo, dosed compound id 12, dosed compound name TICAGRELOR, tissue Plasma.
The subject of a further data set is Homo sapiens. The data set is described as §1. Type of data set: ADME, organism-based. The settings on record: in vivo, po, dosed compound id 12, dosed compound name TICAGRELOR, tissue Plasma.

For the compound `CCCSc1nc(N[C@@H]2C[C@H]2c2ccc(F)c(F)c2)c2nnn([C@@H]3C[C@H](OCCO)[C@@H](O)[C@H]3O)c2n1` [TICAGRELOR], in data set [1], the Tmax stood at 1.5 h, the bioavailability was determined as 36% and the half-life is 7 h. For the same compound, in the data set with Homo sapiens, the Protein bound is listed as 99% and the Vd stood at 88 L.

The record behind these values is ChEMBL document CHEMBL3832540, “DailyMed|setid=3ce9ee32-b18b-4ef3-b127-ce479d520e1a | BRILINTA- ticagrelor tablet|Bryant Ranch Prepack”.
